# Test results published in PMC8113231 (Nature Communications, 2021).
# Where a SMILES comes first, the peptide text is derived from it. Bridges are numbered along the chain shown (N, C = ends). [ ]: non-standard residue; d: D form. NMeF = CN[C@@H](Cc1ccccc1)C(=O)O; NMeS = CN[C@@H](CO)C(=O)O; Sar = CNCC(=O)O
# What was measured:
# [1] = tested on: A/Vietnam/UT3040/2004 (H5N1/Vietnam); set-up: species or system cynomolgus monkeys; conditions: cynomolgus monkey, in vivo
# H1N1/Tokyo2619 = assay type: cell-based, influenza A virus
# [2] = tested on: A/duck/Hokkaido/Vac-3/07 (H5N1/Vac-3); test: microbe, parasite or virus in culture; assay type: cell-based, influenza A virus
# [3] = tested on: A/whooper swan/Hokkaido/1/08 (H5N1); set-up: species or system BALB/c mice; conditions: mouse, in vivo, 1.9 mg/kg/day
# H5N1/Vac-3 = assay type: cell-based, influenza A virus
# HA on H1N1 virions = assay type: binding, influenza A virus
# HA on H2N2 virions = assay type: binding, influenza A virus
# [4] = tested on: HA from A/California/07/2009 (H1N1); assay type: cell-based, influenza A virus
# in vitro = conditions: human, serum
structure (smiles),measurement,setting,value
CC(C)[C@@H]1NC(=O)[C@H]([C@@H](C)O)NC(=O)[C@H](Cc2ccc(O)cc2)NC(=O)[C@H](Cc2c[nH]cn2)NC(=O)[C@H](CO)N(C)C(=O)[C@H](CO)NC(=O)[C@H](Cc2ccccc2)N(C)C(=O)[C@H](Cc2ccccc2)N(C)C(=O)[C@H](CC(=O)O)NC(=O)CN(C)C(=O)[C@H]([C@@H](C)O)NC(=O)[C@H](Cc2c[nH]c3ccccc23)NC(=O)CSC[C@@H](C(N)=O)NC(=O)[C@H](CCCNC(=N)N)NC(=O)[C@@H]2CCCN2C1=O [iHA-100] ({CH2CO}-WT[Sar]D[NMeF][NMeF]S[NMeS]HYTVPRC-NH2; thioether N-15),IFN-γ in the lungs,[1],significantly reduced
same,IL-6 in the lungs,[1],significantly reduced
same,IL-15 in the lungs,[1],decreased
same,Virus titers in autopsy lung samples at 7 dpi,[1],low virus titers in the lungs of two monkeys
same,Body temperature,[1]; 3 mg/kg/day,returned to a normal range
same,Bodyweight loss,[1]; 3 mg/kg/day,relatively attenuated
same,Lung weights,[1]; 3 mg/kg/day,relatively lower
same,"Virus in nasal, oral and bronchial swabs",[1]; 3 mg/kg/day,disappeared at 3–6 dpi
same,"Virus shedding after treatment (3–7 dpi), area under the curve",[1]; po,significantly lower virus shedding
same,H1N1/Tokyo2619 virus-mediated RBC membrane fusion,H1N1/Tokyo2619,inhibited by iHA-100 in a dose-dependent manner
same,Plaque formation of H5N1/Vac-3 (screen of 28 candidates),[2],inhibited plaque formation
same,Size of viral plaques,[2],reduced the size of viral plaques
same,Progression of pneumonia (histopathology),[3],prevented the progression of pneumonia
same,Survival,[3],40%
same,"Survival rate, administration started 0 days after infection",[3],comparable with the survival rate in the zanamivir-treated group
same,Viral replication in the lungs,[3],significantly suppressed
same,Virus-related increase in lung weight,[3],significantly suppressed
same,H5N1/Vac-3 virus-mediated RBC membrane fusion,H5N1/Vac-3,inhibited by iHA-100 in a dose-dependent manner
same,Binding to HA on H1N1 virions (pull-down),HA on H1N1 virions,bound to HA
same,Binding to HA on H2N2 virions (pull-down),HA on H2N2 virions,bound to HA
same,Polykaryon formation mediated by H1 HA,[4],significantly inhibited
same,half-life,in vitro,~3.85 h
same,Inhibition of hemagglutination,chicken red blood cells,could not
